# Test results as given in article PMC4866688, “Trypanosoma brucei DHFR-TS Revisited: Characterisation of a Bifunctional and Highly Unstable Recombinant Dihydrofolate Reductase-Thymidylate Synthase” (PLoS Neglected Tropical Diseases, 2016).
# “And” between values parts separate entries of the source, which are not always exact repeats. Equal entries are not always repeated. Where two headings read alike, the source gives them in different places.
# Columns and labels:
# [1] = target: T1, T. brucei TS (Tsf-TbDHFR-TS) (Trypanosoma brucei brucei, UniProt Q27783); assay: Inhibition of TS activity of Tsf-TbDHFR-TS in clarified thyA- E. coli lysate; assay type: biochemical; settings: for Ki: TS Ki, T. brucei; for Ki / TS Ki, T. brucei: 100 μM CH2THF, 200 μM dUMP, 200 nM Tsf-TbDHFR-TS, Inactive * = no inhibition at 25 μM, ** = no inhibition at 100 μM
# T1 construct: The open reading frame of DHFR-TS was amplified by PCR from T. brucei gDNA using specific oligonucleotides; made in house; host or cells: thyA- E. coli derived from BL21 Star (DE3); unpurified clarified lysate
# Procedure: (§1) The initial characterisation of TS was also carried out using a spectrophotometric assay. […] Enzymatic reactions were initiated by the addition of CH2THF (200 μM, Shircks Laboratories) and initial rates of CH2THF oxidation to DHF monitored by the increase in absorbance at 340 nm (ε = 6,200 M^-1 cm^-1). […] Residual 5-[^3H]-dUMP was removed by the addition of 200 μl of 10% (w/v) activated charcoal (Sigma). Aliquots (100 μl) of the supernatants were added to 2 ml of scintillation fluid (Pico-Fluor 40™, Packard Bioscience) and radioactivity determined using a Beckmann LS 6500 Scintillation Counter. To determine TS activity in clarified T. brucei lysates the incubation time was increased to 30 min and the assay volume was increased to ~200 μl. […] For stability experiments all lysates were desalted using 0.5 ml Zeba Spin Desalting Columns (7K MWCO). Protein concentrations were determined using the BioRad protein assay based on the method of Bradford. Inhibitors (8-point doubling dilutions) were assayed using the radiometric method in the presence of 100 μM CH2THF, 200 μM dUMP and 200 nM Tsf-TbDHFR-TS.
# Target sequence in this assay (Q27783 whole entry): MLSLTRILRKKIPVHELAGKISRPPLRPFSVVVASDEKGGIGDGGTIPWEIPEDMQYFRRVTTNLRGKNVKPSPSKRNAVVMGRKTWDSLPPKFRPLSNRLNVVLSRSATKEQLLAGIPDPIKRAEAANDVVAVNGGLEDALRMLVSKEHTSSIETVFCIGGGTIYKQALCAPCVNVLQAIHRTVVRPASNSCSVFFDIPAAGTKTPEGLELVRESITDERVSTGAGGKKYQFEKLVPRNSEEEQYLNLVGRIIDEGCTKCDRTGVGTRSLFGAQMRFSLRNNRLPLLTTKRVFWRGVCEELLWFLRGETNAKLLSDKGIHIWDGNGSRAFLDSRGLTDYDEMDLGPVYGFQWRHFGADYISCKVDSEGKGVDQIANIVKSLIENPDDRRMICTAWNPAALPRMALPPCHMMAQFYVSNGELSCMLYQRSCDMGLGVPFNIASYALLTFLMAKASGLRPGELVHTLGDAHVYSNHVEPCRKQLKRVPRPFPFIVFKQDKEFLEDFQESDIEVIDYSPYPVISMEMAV
# Target sequence in this assay (P0A6P1 whole entry, further chain): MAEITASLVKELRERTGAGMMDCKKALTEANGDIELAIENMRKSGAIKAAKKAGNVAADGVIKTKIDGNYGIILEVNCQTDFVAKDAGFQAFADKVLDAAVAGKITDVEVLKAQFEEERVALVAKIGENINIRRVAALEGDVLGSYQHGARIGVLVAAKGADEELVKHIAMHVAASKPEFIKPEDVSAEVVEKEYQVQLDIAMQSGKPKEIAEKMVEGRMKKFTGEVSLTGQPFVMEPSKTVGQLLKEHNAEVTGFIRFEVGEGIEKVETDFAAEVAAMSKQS
# [2] = target: T1, T. brucei TS (Tsf-TbDHFR-TS); assay: Kinetic analysis of TS activity (substrates); assay type: biochemical; settings: clarified E. coli lysate, radiometric assay; read-out: CH2THF Km^app
# Procedure: The initial characterisation of TS was also carried out using a spectrophotometric assay. Owing to the pronounced instability of the recombinant protein, clarified ThyA^- E. coli lysates were used for characterisation, where the concentration of TS was calculated based on DHFR activity. […] . Enzymatic reactions were initiated by the addition of CH2THF (200 μM, Shircks Laboratories) and initial rates of CH2THF oxidation to DHF monitored by the increase in absorbance at 340 nm (ε = 6,200 M^-1 cm^-1). This method is not suitable for determination of the Km^app for CH2THF and a radiometric method was used instead. This method measures the release of tritiated water from 5-[^3H]-dUMP (American Radiochemicals, 14.3 Ci mmol^-1). Assays (40 μl final volume) contained 200 nM TS and varying amounts of CH2THF (37.5 μM– 4.8 mM) in DHFR-assay buffer. Reactions were initiated by adding 200 μM [^3H]-dUMP (5.55 × 10^5 dpm nmol^-1) and stopped after 10 min by the addition of 20 μl trichloroacetic acid. Residual 5-[^3H]-dUMP was removed by the addition of 200 μl of 10% (w/v) activated charcoal (Sigma). Aliquots (100 μl) of the supernatants were added to 2 ml of scintillation fluid (Pico-Fluor 40™, Packard Bioscience) and radioactivity determined using a Beckmann LS 6500 Scintillation Counter. […] Protein concentrations were determined using the BioRad protein assay based on the method of Bradford. […]
# Target sequence in this assay (Q27783 whole entry): as the sequence (Q27783 whole entry) above
# Target sequence in this assay (P0A6P1 whole entry partner): as the sequence (P0A6P1 whole entry, further chain) above
# [3] = target: T2, T. brucei DHFR (Tsf-TbDHFR-TS) (Trypanosoma brucei brucei, UniProt Q27783); assay: Kinetic analysis of DHFR activity (substrates); assay type: biochemical; parameters: The open reading frame of DHFR-TS was amplified by PCR from T. brucei gDNA using specific oligonucleotides; made in house; host or cells: thyA- E. coli derived from BL21 Star (DE3); settings: for Activity as substrate for T. brucei DHFR: <17,000-fold (folate) and <2,300-fold (pterins) compared to DHF as substrate
# [4] = target: T2, T. brucei DHFR (Tsf-TbDHFR-TS); assay: Inhibition of DHFR activity of recombinant Tsf-TbDHFR-TS (spectrophotometric, 340 nm); settings: for Modality of inhibition of DHFR: with respect to DHF
# Procedure: DHFR activity was determined spectrophotometrically at 340 nm [18]. DHFR (5 nM) was pre-incubated with 100 μM NADPH (Medford) in assay buffer (50 mM HEPES, pH 7.4, containing 100 mM KCl) for 1 min at 25°C (1 ml final assay volume), before the addition of 100 μM DHF (Sigma Aldrich). […] The Km^app values for DHFR substrates were determined by varying the concentration of one substrate in the presence of a fixed saturating concentration of the other. IC50 values were determined using 8-point doubling dilutions of inhibitor under the above standard assay conditions.
# Results were analysed by non-linear regression using GraFit v 5.0.13 (Erithacus Software). Km^app values were determined using the Michaelis-Menten equation. IC50 values were determined using eq 1 and Ki values calculated using the Cheng-Prusoff eq 2 [23].
# Human TS = settings: cited from earlier work
# [5] = system: T. brucei bloodstream-form 'single marker' S427; assay: Growth inhibition of wild type T. brucei, 72 h, resazurin-based assay; assay type: cell-based; settings: Trypanosoma brucei
# Procedure: Wild type (WT) T. brucei bloodstream-form ‘single marker’ S427 were cultured in HMI9T medium supplemented with 2.5 μg ml^-1 G418 to maintain expression of T7 RNA polymerase and the tetracycline repressor protein [27]. HMI9T medium (standard media for T. brucei cell culture) contains high concentrations of folate (~9 μM) and thymidine (~160 μM) principally from IMDM and 10% Serum Plus components. A medium based on HMI9T, only lacking Serum Plus, folate and thymidine was prepared in-house, named trypanosome base media (TBM; the residual folate is provided by the serum component). A comparison of these media is described in S2 Table. WT T. brucei cells grow normally in TBM and the rate of growth is similar to HMI9T in TBM with no supplementation, supplementation with 9 μM folate, 160 μM thymidine or supplementation with both folate and thymidine (7–8 h doubling time).
# EC50 of antifolates against T. brucei were determined in 96-well microtitre plates. Serial doubling dilutions of antifolate drugs (10–50 mM stocks prepared in DMSO) were prepared in 100 μl of the appropriate medium and trypanosomes (resuspended in the same medium) added in 100 μl to give a final concentration of 2.5 × 10^3 cells ml^-1. All wells, including controls, contained a final volume of 0.5% DMSO. Cultures were incubated for 72 h at 37°C / 5% CO2 before cell density was determined using a resazurin-based assay. EC50 values were calculated using GraFit v 5.0.13 (Erithacus Software) with a 3-parameter non-linear regression from triplicate readings. Antifolates were tested against parasites cultured in TBM; this allowed for the addition of thymidine (160 μM) and folate (9 μM) respectively.
# Human DHFR = settings: cited from earlier work
# [6] = target: T1, T. brucei TS (Tsf-TbDHFR-TS); assay: Stabilisation of recombinant T. brucei TS activity in desalted, diluted lysate; assay type: biochemical
# Procedure: as §1
# Target sequence in this assay (Q27783 whole entry): as the sequence (Q27783 whole entry) above
# Target sequence in this assay (P0A6P1 whole entry partner): as the sequence (P0A6P1 whole entry, further chain) above
# [7] = TBM (folate and thymidine deficient), read-out: EC50, No addition
# [8] = TBM + folate (9 μM), read-out: EC50, + Folate
# [9] = TBM + thymidine (160 μM) + folate (9 μM), read-out: EC50, + Thymidine + Folate
# [10] = TBM + thymidine (160 μM), read-out: EC50, + Thymidine
# [11] = DHFR Ki, T. brucei, recombinant TbDHFR-TS, from IC50 (Cheng-Prusoff) or Morrison equation for tight binders, Inactive ** = no inhibition at 100 μM
# [12] = DHFR Ki (competitive inhibition, global fit, Fig 5), varying DHF, fixed amounts of inhibitor, non-linear regression
# T2 sequence (Q27783 whole entry): as the sequence (Q27783 whole entry) above
compound,measurement,setting,value
OCCS [2-mercaptoethanol],EC50,"[1]; reducing agent at higher concentrations, clarified lysate",~100000 µM
"Nc1nc2c(c(=O)[nH]1)N1CN(c3ccc(C(=O)N[C@@H](CCC(=O)O)C(=O)O)cc3)CC1CN2 (stereo partly drawn) [CH2THF, N^5, N^10-methylenetetrahydrofolate]",Km,[2],470 ± 50 µM
"Nc1nc(=O)c2c([nH]1)NCC(CNc1ccc(C(=O)N[C@@H](CCC(=O)O)C(=O)O)cc1)=N2 [DHF, dihydrofolate]",Km,"[3]; Tsf-TbDHFR-TS, purified, 50 mM HEPES pH 7.4, 100 mM KCl, read-out: DHF Km^app",4.1 ± 0.6 µM
same,Km,"[3]; Tsf-cleaved TbDHFR-TS, read-out: DHF Km^app",4.2 ± 0.5 µM
same,Km,"[3]; purified enzyme, read-out: DHFR Km^app (Fig 4 legend)",4.1 ± 0.6 µM
"O=c1[nH]c(=O)n([C@H]2C[C@H](O)[C@@H](COP(=O)(O)O)O2)cc1F [FdUMP, 5-fluorodeoxyuridine monophosphate]","DHFR Ki, T. brucei","[4]; recombinant TbDHFR-TS, from IC50 (Cheng-Prusoff) or Morrison equation for tight binders, Inactive ** = no inhibition at 100 μM",Inactive ^**
same,Ki,Human TS; ref Dolnick and Cheng [32],0.0017 µM
same,Ki,[1],0.014 µM and 0.0138 µM
same,Modality of inhibition of TS,[1]; dUMP-competitive,tight-binding inhibition
Nc1nc(=O)c2nc(CNc3ccc(C(=O)N[C@@H](CCC(=O)O)C(=O)O)cc3)cnc2[nH]1 [Folic acid],Activity as substrate for T. brucei DHFR,[3],inactive
"CN(Cc1cnc2nc(N)nc(N)c2n1)c1ccc(C(=O)N[C@@H](CCC(=O)O)C(=O)O)cc1 [Methotrexate, methotrexate]",Modality of inhibition of DHFR,[4],tight-binding inhibitors
same,EC50,[5]; [7],0.012 ± 0.001 µM
same,EC50,[5]; [8],1.31 ± 0.13 µM
same,EC50,[5]; [9],8.16 ± 2.78 µM
same,EC50,[5]; [10],0.12 ± 0.03 µM
NC(=O)C1=CN([C@@H]2O[C@H](COP(=O)(O)OP(=O)(O)OC[C@H]3O[C@@H](n4cnc5c(N)ncnc54)[C@H](OP(=O)(O)O)[C@@H]3O)[C@@H](O)[C@H]2O)C=CC1 [NADPH],Km,"[3]; Tsf-TbDHFR-TS, purified, read-out: NADPH Km^app",1.7 ± 0.2 µM
"Cc1ccc2nc(N)[nH]c(=O)c2c1Sc1ccncc1 [Nolatrexed, nolatrexed]","DHFR Ki, Human",Human DHFR; ref Webber et al. [10],Inactive^h
same,Ki,[4]; [11],0.348 ± 0.03 µM
same,EC50,"[5]; read-out: EC50, + Folate",21.8 ± 2 µM
same,EC50,"[5]; read-out: EC50, + Thymidine",32.7 ± 4.7 µM
same,EC50,"[5]; read-out: EC50, + Thymidine + Folate",39.6 ± 7.2 µM
same,EC50,"[5]; read-out: EC50, No addition",33.8 ± 3.7 µM
same,Ki,[1],0.039 µM and 0.0394 µM
"Nc1nc2[nH]cc(CCc3ccc(C(=O)N[C@@H](CCC(=O)O)C(=O)O)cc3)c2c(=O)[nH]1 [Pemetrexed, pemetrexed]",Ki,Human DHFR; ref Shih et al. [11],0.007 µM
same,Ki,[4]; [11],0.29 ± 0.02 µM
same,EC50,[5]; [7],0.02 ± 0.001 µM
same,EC50,[5]; [8],12.9 ± 1.1 µM
same,EC50,[5]; [9],> 250 µM
same,EC50,[5]; [10],> 250 µM
same,Ki,[1],20.5 µM
"CCc1nc(N)nc(N)c1-c1ccc(Cl)cc1 [Pyrimethamine, pyrimethamine]",Modality of inhibition of DHFR,[4],competitive inhibitors
same,EC50,[5]; [7],2.26 ± 0.32 µM
same,EC50,[5]; [8],6.32 ± 0.71 µM
same,EC50,[5]; [9],6.87 ± 0.33 µM
same,EC50,[5]; [10],2.01 ± 0.34 µM
same,"TS Ki, T. brucei",[1],Inactive ^**
"Cc1nc2ccc(CN(C)c3ccc(C(=O)N[C@@H](CCC(=O)O)C(=O)O)s3)cc2c(=O)[nH]1 [Raltitrexed, raltitrexed]",Ki,Human DHFR; ref Jackman et al. [12],0.093 µM
same,Ki,[4]; [12],0.0704 ± 0.0072 µM
same,Ki,[4]; [11],0.0931 ± 0.0079 µM
same,Modality of inhibition of DHFR,[4],competitive inhibitors
same,Ki,Human TS; ref Jackman et al. [12],0.06 µM
same,EC50,[5]; [7],0.038 ± 0.001 µM
same,EC50,[5]; [8],64.8 ± 4.3 µM
same,EC50,[5]; [9],> 250 µM
same,EC50,[5]; [10],> 250 µM
same,Ki,[1],0.215 ± 0.018 µM
"COc1cc(Cc2cnc(N)nc2N)cc(OC)c1OC [Trimethoprim, trimethoprim]",Ki,[4]; [12],0.0114 ± 0.0012 µM
same,Ki,[4]; [11],0.0176 ± 0.0015 µM
same,Modality of inhibition of DHFR,[4],competitive inhibitors
same,EC50,[5]; [7],48.8 ± 3.7 µM
same,EC50,[5]; [8],170 ± 28 µM
same,EC50,[5]; [9],145 ± 22 µM
same,EC50,[5]; [10],59.8 ± 8.6 µM
"COc1cc(NCc2ccc3nc(N)nc(N)c3c2C)cc(OC)c1OC [Trimetrexate, trimetrexate]",Ki,[4]; [11],0.0006 µM and 0.000597 µM
same,Modality of inhibition of DHFR,[4],tight-binding inhibitors
same,EC50,[5]; [7],0.32 ± 0.02 µM
same,EC50,[5]; [8],1.23 ± 0.06 µM
same,EC50,[5]; [9],4.09 ± 0.35 µM
same,EC50,[5]; [10],2.82 ± 0.36 µM
same,"TS Ki, T. brucei",[1],Inactive ^*
"O=c1ccn([C@H]2C[C@H](O)[C@@H](COP(=O)(O)O)O2)c(=O)[nH]1 [dUMP, deoxyuridine monophosphate]",Increase in stability of TS activity,[6]; 200 μM dUMP vs no dUMP,700 fold
same,EC50,"[6]; absence of CH2THF, diluted lysate incubated 10 min, read-out: Half maximal concentration required to stabilise TS activity",12.6 ± 2.5 µM
C[C@H](O)[C@H](O)C1=Nc2c(nc(N)[nH]c2=O)NC1 [dihydrobiopterin],Activity as substrate for T. brucei DHFR,[3],inactive
Nc1nc2ncc([C@H](O)[C@H](O)CO)nc2c(=O)[nH]1 [neopterin],Activity as substrate for T. brucei DHFR,[3],inactive
C[C@H](O)C(=O)C1=Nc2c(nc(N)[nH]c2=O)NC1 [sepiapterin],Activity as substrate for T. brucei DHFR,[3],inactive
biopterin,Activity as substrate for T. brucei DHFR,[3],inactive
